Source: US20260070945A1, “MACROCYCLIC IMMUNOMODULATORS” (Bristol-Myers Squibb Company, priority 2022, published 2026)
*1 amine or outer side, *2 acyl side, *3 side chain or, on linkers, in order; H or OH if unused. Where a SMILES comes first, the peptide text is derived from it. Bridges are numbered along the chain shown (N, C = ends). [ ]: non-standard residue; d: D form. The star is where a group is joined. ξ: configuration not given here. Phe(3-CF3) = N[C@@H](Cc1cccc(C(F)(F)F)c1)C(=O)O; Phe(4-CF3) = N[C@@H](Cc1ccc(C(F)(F)F)cc1)C(=O)O; Phe(4-COOH) = N[C@@H](Cc1ccc(C(=O)O)cc1)C(=O)O; Bip = N[C@@H](Cc1ccc(-c2ccccc2)cc1)C(=O)O; Morpholine(3S-CO) = O=C(O)[C@@H]1COCCN1; Phe(3-F) = N[C@@H](Cc1cccc(F)c1)C(=O)O; Phe(3-Me) = Cc1cccc(C[C@H](N)C(=O)O)c1; Phe(4-F) = N[C@@H](Cc1ccc(F)cc1)C(=O)O; Val(3-OH) = CC(C)(O)[C@H](N)C(=O)O; X6 = O=C(Cc1ccc(CN[*:1])cc1)[*:2]; 4Pal = N[C@@H](Cc1ccncc1)C(=O)O; Cha = N[C@@H](CC1CCCCC1)C(=O)O; Cit = NC(=O)NCCC[C@H](N)C(=O)O; Thr(3ξ) = CC(O)[C@H](N)C(=O)O; 4Abz = Nc1ccc(C(=O)O)cc1; Carboxymethyl = O=C(O)C*; NMeA = CN[C@@H](C)C(=O)O; Orn = NCCC[C@H](N)C(=O)O; Aun = NCCCCCCCCCCC(=O)O; Dab = NCC[C@H](N)C(=O)O; Dap = NC[C@H](N)C(=O)O; AEEA = NCCOCCOCC(=O)O; ξV = CC(C)C(N)C(=O)O

target: T1, PD-1/PD-L1 interaction (PE-labeled human PD-L1-Ig binding to Jurkat cell line over-expressing human PD-1) (Homo sapiens, UniProt Q15116); assay: Jurkat-PD-1 Cell Binding High-Content Screening Assay (CBA); details: Jurkat-hPD-1 cells, PE-labeled PD-L1-Ig 20 nM final; read-out: Jurkat HPD1 PDL1 IC50
T1 construct: expressed in transfected cells; host or cells: Jurkat
In short: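 Jurkat cells overexpressing human PD-1 (8×10^3/well, DMEM + 10% FCS) preincubated with compound 2 h at 37 °C, then PE-labelled human PD-L1-Ig (20 nM final) for 1 h. Cells fixed in paraformaldehyde with Hoechst 33342; bound PD-L1 quantified by high-content imaging.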

T1 sequence (Q15116 25-288): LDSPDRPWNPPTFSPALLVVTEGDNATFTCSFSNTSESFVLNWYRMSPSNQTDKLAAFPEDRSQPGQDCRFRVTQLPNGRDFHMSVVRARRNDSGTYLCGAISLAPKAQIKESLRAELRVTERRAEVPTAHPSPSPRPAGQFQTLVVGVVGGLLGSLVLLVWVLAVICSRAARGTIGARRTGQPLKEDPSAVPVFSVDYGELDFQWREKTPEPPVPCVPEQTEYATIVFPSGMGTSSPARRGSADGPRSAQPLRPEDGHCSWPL

Row | IC50 [nM] | Structure (SMILES)
1 | 27.7 | Cc1cccc(C[C@@H]2NC(=O)[C@H](CC(=O)O)NC(=O)[C@H](Cc3ccc(OCC(=O)O)cc3)NC(=O)[C@H]([C@@H](C)O)NC(=O)CSC[C@@H](C(=O)N[C@@H](CCN)C(=O)NCCOCCOCC(=O)NCCCCCCCCCCC(=O)O)NC(=O)[C@H](CCC(=O)O)NC(=O)[C@H](C(C)(C)O)NC(=O)[C@H](CC3CCCCC3)NC(=O)[C@H](CCN)NC(=O)[C@@H](CC(C)C)NC(=O)[C@H](C)N(C)C(=O)[C@H](Cc3ccc(OCC(=O)O)cc3)NC(=O)[C@H](Cc3ccc(-c4ccccc4)cc3)NC(=O)[C@H](Cc3cccc(F)c3)NC2=O)c1 [Example 1424] ({CH2CO}-TY(Carboxymethyl)D[Phe(3-Me)][Phe(3-F)][Bip]Y(Carboxymethyl)[NMeA][dL][Dab][Cha][Val(3-OH)]EC[Dab][AEEA][Aun]-OH; thioether N-14)
2 | 97.7 | Cc1cccc(C[C@@H]2NC(=O)[C@H](CC(=O)O)NC(=O)[C@H](Cc3ccc(OCC(=O)O)cc3)NC(=O)[C@H](CN)NC(=O)CSC[C@@H](C(=O)NCCOCCOCC(=O)NCCCCCCCCCCC(=O)O)NC(=O)[C@H](CCCN)NC(=O)[C@H](C(C)C)NC(=O)[C@H](CC3CCCCC3)NC(=O)[C@H](CCN)NC(=O)[C@@H](CC(C)C)NC(=O)[C@H](C)N(C)C(=O)[C@H](Cc3ccc(O)cc3)NC(=O)[C@H](Cc3ccc(-c4ccccc4)cc3)NC(=O)[C@H](Cc3ccc(O)cc3)NC2=O)c1 [Example 1316] ({CH2CO}-[Dap]Y(Carboxymethyl)D[Phe(3-Me)]Y[Bip]Y[NMeA][dL][Dab][Cha]V[Orn]C[AEEA][Aun]-OH; thioether N-14)
3 | 25.8 | CC(C)C[C@H]1NC(=O)[C@H](C)N(C)C(=O)[C@H](Cc2ccc(OCC(=O)O)cc2)NC(=O)[C@H](Cc2ccc(-c3ccccc3)cc2)NC(=O)[C@H](Cc2ccc(OCC(=O)O)cc2)NC(=O)[C@H](Cc2c[nH]c3ccccc23)NC(=O)[C@H](CC(=O)O)NC(=O)[C@H](Cc2ccc(OCC(=O)O)cc2)NC(=O)[C@H]([C@@H](C)O)NC(=O)CSC[C@@H](C(=O)N[C@@H](CCN)C(=O)NCCOCCOCC(=O)NCCCCCCCCCCC(=O)O)NC(=O)[C@H](CO)NC(=O)[C@H](C(C)C)NC(=O)[C@H](CC2CCCCC2)NC(=O)[C@H](CCN)NC1=O [Example 1391] ({CH2CO}-TY(Carboxymethyl)DWY(Carboxymethyl)[Bip]Y(Carboxymethyl)[NMeA][dL][Dab][Cha]VSC[Dab][AEEA][Aun]-OH; thioether N-14)
4 | 18.2 | CC(C)C[C@@H]1NC(=O)[C@H](Cc2c[nH]c3ccccc23)NC(=O)[C@H](CC(=O)O)NC(=O)[C@H](Cc2ccc(C(=O)O)cc2)NC(=O)[C@H](Cc2ccc(OCC(=O)O)cc2)NC(=O)CSC[C@@H](C(=O)N[C@@H](CCCCN)C(=O)NCc2ccc(CC(=O)NCCCCCCCCCCC(=O)O)cc2)NC(=O)[C@H](CO)NC(=O)[C@H](C(C)C)NC(=O)[C@H](CC2CCCCC2)NC(=O)[C@H](CCN)NC(=O)[C@@H](CC(C)C)NC(=O)[C@H](C)N(C)C(=O)[C@H](C(C)C)NC(=O)[C@H](Cc2ccc(-c3ccccc3)cc2)NC1=O [Example 1245] ({CH2CO}-Y(Carboxymethyl)[Phe(4-COOH)]DWL[Bip]V[NMeA][dL][Dab][Cha]VSCK[X6][Aun]-OH; thioether N-14)
5 | 127 | Cc1cccc(C[C@@H]2NC(=O)[C@H](CC(=O)O)NC(=O)[C@H](Cc3c[nH]cn3)NC(=O)[C@H](Cc3ccc(OCC(=O)O)cc3)NC(=O)CSC[C@@H](C(=O)NCCCCCCCCCCC(=O)O)NC(=O)[C@H](CO)NC(=O)[C@H](C(C)C)NC(=O)[C@H](CC3CCCCC3)NC(=O)[C@H](CCN)NC(=O)[C@@H](CC(C)C)NC(=O)[C@H](C)N(C)C(=O)[C@H](Cc3ccc(OCC(=O)O)cc3)NC(=O)[C@H](Cc3ccc(-c4ccccc4)cc3)NC(=O)[C@H](CC(C)C)NC2=O)c1 [Example 2252] ({CH2CO}-Y(Carboxymethyl)HD[Phe(3-Me)]L[Bip]Y(Carboxymethyl)[NMeA][dL][Dab][Cha]VSC[Aun]-OH; thioether N-14)
6 | 11 | Cc1cccc(C[C@@H]2NC(=O)[C@H](CC(=O)O)NC(=O)[C@H](Cc3ccc(OCC(=O)O)cc3)NC(=O)[C@H](CC(N)=O)NC(=O)CSC[C@@H](C(=O)NCCCCCCCCCCC(=O)O)NC(=O)[C@H](CCCNC(N)=O)NC(=O)[C@H](C(C)C)NC(=O)[C@H](CC3CCCCC3)NC(=O)[C@H](CCN)NC(=O)[C@@H](CC(C)C)NC(=O)[C@H](C)N(C)C(=O)C(C(C)C)NC(=O)[C@H](Cc3ccc(-c4ccccc4)cc3)NC(=O)[C@H](CC(C)C)NC2=O)c1 (stereo partly drawn) [Example 2248] ({CH2CO}-NY(Carboxymethyl)D[Phe(3-Me)]L[Bip][ξV][NMeA][dL][Dab][Cha]V[Cit]C[Aun]-OH; thioether N-14)
7 | 420 | CC(C)C[C@@H]1NC(=O)[C@H](Cc2c[nH]c3ccccc23)NC(=O)[C@H](CC(=O)O)NC(=O)[C@H](Cc2ccncc2)NC(=O)[C@H](Cc2ccc(OCC(=O)O)cc2)NC(=O)CSC[C@@H](C(=O)N2CCOC[C@H]2C(=O)NCCCCCCCCCCC(=O)O)NC(=O)[C@H](CCCNC(N)=O)NC(=O)[C@H](C(C)C)NC(=O)[C@H](CC2CCCCC2)NC(=O)[C@H](CCN)NC(=O)[C@@H](CC(C)C)NC(=O)[C@H](C)N(C)C(=O)[C@H](C(C)C)NC(=O)[C@H](Cc2ccc(-c3ccccc3)cc2)NC1=O [Example 1223] ({CH2CO}-Y(Carboxymethyl)[4Pal]DWL[Bip]V[NMeA][dL][Dab][Cha]V[Cit]C[Morpholine(3S-CO)][Aun]-OH; thioether N-14)
8 | 14.9 | Cc1cccc(C[C@@H]2NC(=O)[C@H](CC(=O)O)NC(=O)[C@H](Cc3ccc(OCC(=O)O)cc3)NC(=O)[C@H](CN)NC(=O)CSC[C@@H](C(=O)N[C@@H](CCN)C(=O)NCCCCCCCCCCC(=O)O)NC(=O)[C@H](CO)NC(=O)[C@H](C(C)C)NC(=O)[C@H](CC3CCCCC3)NC(=O)[C@H](CCN)NC(=O)[C@@H](CC(C)C)NC(=O)[C@H](C)N(C)C(=O)[C@H](Cc3ccc(O)cc3)NC(=O)[C@H](Cc3ccc(-c4ccccc4)cc3)NC(=O)[C@H](Cc3ccc(OCC(=O)O)cc3)NC2=O)c1 [Example 1259] ({CH2CO}-[Dap]Y(Carboxymethyl)D[Phe(3-Me)]Y(Carboxymethyl)[Bip]Y[NMeA][dL][Dab][Cha]VSC[Dab][Aun]-OH; thioether N-14)

Row | Structure (SMILES) | IC50 [nM]
9 | CC(C)C[C@@H]1NC(=O)[C@H](Cc2c[nH]c3ccccc23)NC(=O)[C@H](CC(=O)O)NC(=O)[C@H](Cc2ccncc2)NC(=O)[C@H](Cc2ccc(OCC(=O)O)cc2)NC(=O)CSC[C@@H](C(=O)Nc2ccc(C(=O)NCCCCCCCCCCC(=O)O)cc2)NC(=O)[C@H](CCN)NC(=O)[C@H](C(C)C)NC(=O)[C@H](CC2CCCCC2)NC(=O)[C@H](CCN)NC(=O)[C@@H](CC(C)C)NC(=O)[C@H](C)N(C)C(=O)[C@H](C(C)C)NC(=O)[C@H](Cc2ccc(-c3ccccc3)cc2)NC1=O [Example 1212] ({CH2CO}-Y(Carboxymethyl)[4Pal]DWL[Bip]V[NMeA][dL][Dab][Cha]V[Dab]C[4Abz][Aun]-OH; thioether N-14) | 301

same assay, conditions: PE-labeled PD-L1-Ig 20 nM final, Jurkat-hPD-1 cells; read-out: Jurkat HPD1 PDL1 IC50

Row | IC50 [nM] | Structure (SMILES)
10 | 2.2 | CC(C)C[C@H]1NC(=O)[C@H](C)N(C)C(=O)[C@H](Cc2ccc(C(=O)O)cc2)NC(=O)[C@H](Cc2ccc(-c3ccccc3)cc2)NC(=O)[C@H](Cc2ccc(C(=O)O)cc2)NC(=O)[C@H](Cc2cccc(C(F)(F)F)c2)NC(=O)[C@H](CC(=O)O)NC(=O)[C@H](Cc2ccc(C(=O)O)cc2)NC(=O)[C@H](C(C)O)NC(=O)CSC[C@@H](C(=O)N[C@@H](CCN)C(=O)NCCCCCCCCCCC(=O)O)NC(=O)[C@H](CO)NC(=O)[C@H](C(C)(C)O)NC(=O)[C@H](CC2CCCCC2)NC(=O)[C@H](CCN)NC1=O (stereo partly drawn) [Example 2567] ({CH2CO}-[Thr(3ξ)][Phe(4-COOH)]D[Phe(3-CF3)][Phe(4-COOH)][Bip][Phe(4-COOH)][NMeA][dL][Dab][Cha][Val(3-OH)]SC[Dab][Aun]-OH; thioether N-14)
11 | 2.1 | Cc1cccc(C[C@@H]2NC(=O)[C@H](CC(=O)O)NC(=O)[C@H](Cc3ccc(OCC(=O)O)cc3)NC(=O)[C@H](Cc3ccc(F)cc3)NC(=O)CSC[C@@H](C(=O)N[C@@H](CCN)C(=O)NCCOCCOCC(=O)NCCCCCCCCCCC(=O)O)NC(=O)[C@H](CCC(=O)O)NC(=O)[C@H](C(C)C)NC(=O)[C@H](CC3CCCCC3)NC(=O)[C@H](CCN)NC(=O)[C@@H](CC(C)C)NC(=O)[C@H](C)N(C)C(=O)[C@H](Cc3ccc(OCC(=O)O)cc3)NC(=O)[C@H](Cc3ccc(-c4ccccc4)cc3)NC(=O)[C@H](Cc3ccc(OCC(=O)O)cc3)NC2=O)c1 [Example 2560] ({CH2CO}-[Phe(4-F)]Y(Carboxymethyl)D[Phe(3-Me)]Y(Carboxymethyl)[Bip]Y(Carboxymethyl)[NMeA][dL][Dab][Cha]VEC[Dab][AEEA][Aun]-OH; thioether N-14)
12 | 108 | Cc1cccc(C[C@@H]2NC(=O)[C@H](CC(=O)O)NC(=O)[C@H](Cc3ccc(C(F)(F)F)cc3)NC(=O)[C@H](C(C)O)NC(=O)CSC[C@@H](C(=O)N[C@@H](CCN)C(=O)NCCCCCCCCCCC(=O)O)NC(=O)[C@H](C(C)O)NC(=O)[C@H](C(C)C)NC(=O)[C@H](CC3CCCCC3)NC(=O)[C@H](CCN)NC(=O)[C@@H](CC(C)C)NC(=O)[C@H](C)N(C)C(=O)[C@H](Cc3ccc(C(=O)O)cc3)NC(=O)[C@H](Cc3ccc(-c4ccccc4)cc3)NC(=O)[C@H](Cc3ccc(C(=O)O)cc3)NC2=O)c1 (stereo partly drawn) [Example 2571] ({CH2CO}-[Thr(3ξ)][Phe(4-CF3)]D[Phe(3-Me)][Phe(4-COOH)][Bip][Phe(4-COOH)][NMeA][dL][Dab][Cha]V[Thr(3ξ)]C[Dab][Aun]-OH; thioether N-14)
